Data as given in ChEMBL document CHEMBL1201862, “PubChem BioAssay data set” (2004).
One block for each compound: values may come before it. Calls of active or inactive are those of the source.

Experiments:
Cytochrome P450 2C9 = Cytochrome P450 2C9 (Homo sapiens, UniProt P11712); details: Potency
Insulin-degrading enzyme = target: T1, Insulin-degrading enzyme (Homo sapiens, UniProt P14735); experiment: Dose Response: Fluorescence polarization-based cell-based high throughput dose response assay for inhibitors of insulin-degrading enzyme (IDE). [Related pubchem assays: 434962 (Primary screen (IDE inhibitors in singlicate)), 449730 (Counterscreen (Cytotoxicity in triplicate)), 435028 (Confirmation (IDE inhibitors in triplicate)), 434984 (Summary …; assay type: functional
T1 sequence (P14735 whole entry): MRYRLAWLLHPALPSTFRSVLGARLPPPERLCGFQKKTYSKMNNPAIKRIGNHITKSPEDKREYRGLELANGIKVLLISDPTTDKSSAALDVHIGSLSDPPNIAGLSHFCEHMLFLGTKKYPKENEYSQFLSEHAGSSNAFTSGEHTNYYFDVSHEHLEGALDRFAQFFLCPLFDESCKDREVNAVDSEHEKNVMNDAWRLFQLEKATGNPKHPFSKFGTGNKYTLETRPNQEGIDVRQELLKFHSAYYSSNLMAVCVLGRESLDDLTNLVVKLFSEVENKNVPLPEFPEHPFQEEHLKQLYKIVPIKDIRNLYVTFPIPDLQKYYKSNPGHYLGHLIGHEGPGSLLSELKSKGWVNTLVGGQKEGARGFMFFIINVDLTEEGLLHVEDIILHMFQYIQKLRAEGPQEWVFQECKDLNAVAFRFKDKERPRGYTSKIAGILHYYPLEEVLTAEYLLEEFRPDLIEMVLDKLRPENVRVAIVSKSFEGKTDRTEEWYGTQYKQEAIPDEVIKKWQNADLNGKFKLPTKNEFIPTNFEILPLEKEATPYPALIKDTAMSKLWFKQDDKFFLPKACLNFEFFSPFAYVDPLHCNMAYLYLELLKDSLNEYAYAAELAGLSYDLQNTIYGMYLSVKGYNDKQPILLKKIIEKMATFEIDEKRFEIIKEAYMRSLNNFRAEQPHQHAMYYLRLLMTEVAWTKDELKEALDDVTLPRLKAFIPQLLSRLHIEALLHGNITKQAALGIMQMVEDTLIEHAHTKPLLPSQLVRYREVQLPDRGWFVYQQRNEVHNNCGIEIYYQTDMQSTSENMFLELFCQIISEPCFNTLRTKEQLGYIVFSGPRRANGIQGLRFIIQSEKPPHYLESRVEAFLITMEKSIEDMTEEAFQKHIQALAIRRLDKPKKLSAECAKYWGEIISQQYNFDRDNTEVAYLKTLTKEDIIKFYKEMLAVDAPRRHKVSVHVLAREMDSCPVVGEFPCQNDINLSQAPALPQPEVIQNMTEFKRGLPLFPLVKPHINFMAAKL

[1] = Counterscreen for IDE inhibitors: Luminescence-based cell-based high throughput dose response assay to identify compounds that are cytotoxic to HEK cells. [Related pubchem assays: 434962 (Primary screen (IDE inhibitors in singlicate)), 449730 (Counterscreen (Cytotoxicity in triplicate)), 435028 (Confirmation (IDE inhibitors in triplicate)) …; assay type: functional; details: HEK293
Protein Wnt-3a = Protein Wnt-3a (Mus musculus, UniProt P27467); experiment: Wnt3a-driven reporter signaling inhibition, dose response, selectivity assay for Gli-SUFU antagonist project, Wnt-LIGHT cells, luminescence (AID 651570); assay type: functional; details: read-out: IC50_Mean;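 note: Wnt-LIGHT reporter cells stimulated with conditioned medium from Wnt3a-producing cells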
[2] = cytotoxicity in HEK-293T cells, dose response, cytotoxicity control for BCR NF-kB inhibitor project, luminescence, B-cell screen hits (AID 489021); assay type: functional, cell-based;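 note: HEK-293T cells carrying an NF-kB luciferase reporter; cells exposed to compound for about 14 hours before viability readout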
Wee1-like protein kinase = Wee1-like protein kinase (Homo sapiens, UniProt P30291); experiment: Dose Response Cell-based Assay for Inhibitors of Wee1 Degradation. [Related pubchem assays: 1410, 1321 ]; assay type: functional
[3] = target: G2/mitotic-specific cyclin-B1 (Homo sapiens, UniProt P14635); experiment: Counterscreen assay for inhibitors of Wee1 degradation: dose response cell-based assay to identify inhibitors of cyclin B degradation. [Related pubchem assays: 1410, 1321 ]; assay type: functional
[4] = target: Photoreceptor-specific nuclear receptor (Homo sapiens, UniProt Q9Y5X4); assay type: functional;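 note: potency for compounds that break the NR2E3 corepressor complex and count as activators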
[5] = target: Peroxisome proliferator-activated receptor gamma/Nuclear receptor corepressor 2 (Homo sapiens, UniProt P37231+Q9Y618); assay type: functional

Sequence of Photoreceptor-specific nuclear receptor (Q9Y5X4 whole entry): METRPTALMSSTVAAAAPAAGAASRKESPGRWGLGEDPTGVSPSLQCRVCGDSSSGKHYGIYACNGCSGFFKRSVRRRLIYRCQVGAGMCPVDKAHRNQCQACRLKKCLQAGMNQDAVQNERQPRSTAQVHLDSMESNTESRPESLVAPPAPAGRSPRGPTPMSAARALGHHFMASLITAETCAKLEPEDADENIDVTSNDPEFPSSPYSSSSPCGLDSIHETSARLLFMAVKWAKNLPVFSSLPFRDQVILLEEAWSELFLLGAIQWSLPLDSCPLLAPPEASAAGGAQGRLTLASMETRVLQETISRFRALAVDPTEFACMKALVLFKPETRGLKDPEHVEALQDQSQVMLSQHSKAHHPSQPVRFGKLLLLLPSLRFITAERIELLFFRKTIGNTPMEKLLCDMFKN
Sequence of G2/mitotic-specific cyclin-B1 (P14635 whole entry): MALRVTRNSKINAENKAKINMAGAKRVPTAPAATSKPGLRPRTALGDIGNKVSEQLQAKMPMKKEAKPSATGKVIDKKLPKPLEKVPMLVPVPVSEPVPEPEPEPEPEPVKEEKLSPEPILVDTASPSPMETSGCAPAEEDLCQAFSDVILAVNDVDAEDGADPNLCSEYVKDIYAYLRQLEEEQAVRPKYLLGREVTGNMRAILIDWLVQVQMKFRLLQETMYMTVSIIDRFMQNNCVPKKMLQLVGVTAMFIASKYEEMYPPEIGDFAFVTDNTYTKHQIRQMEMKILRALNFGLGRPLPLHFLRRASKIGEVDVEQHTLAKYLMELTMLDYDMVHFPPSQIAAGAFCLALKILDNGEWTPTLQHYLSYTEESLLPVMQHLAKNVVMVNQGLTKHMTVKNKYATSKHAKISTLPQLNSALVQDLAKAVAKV
Sequence of Protein Wnt-3a (P27467 whole entry): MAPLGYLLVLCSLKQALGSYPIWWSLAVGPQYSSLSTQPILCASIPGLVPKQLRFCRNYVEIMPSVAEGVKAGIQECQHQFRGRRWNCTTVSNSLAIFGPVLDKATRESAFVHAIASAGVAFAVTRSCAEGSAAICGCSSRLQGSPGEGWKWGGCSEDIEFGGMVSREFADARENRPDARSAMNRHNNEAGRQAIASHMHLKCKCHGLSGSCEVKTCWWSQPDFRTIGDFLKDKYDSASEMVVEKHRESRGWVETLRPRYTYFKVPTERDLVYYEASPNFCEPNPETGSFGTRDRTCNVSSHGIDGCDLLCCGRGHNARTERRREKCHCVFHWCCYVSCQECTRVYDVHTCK
Sequence of Cytochrome P450 2C9 (P11712 whole entry): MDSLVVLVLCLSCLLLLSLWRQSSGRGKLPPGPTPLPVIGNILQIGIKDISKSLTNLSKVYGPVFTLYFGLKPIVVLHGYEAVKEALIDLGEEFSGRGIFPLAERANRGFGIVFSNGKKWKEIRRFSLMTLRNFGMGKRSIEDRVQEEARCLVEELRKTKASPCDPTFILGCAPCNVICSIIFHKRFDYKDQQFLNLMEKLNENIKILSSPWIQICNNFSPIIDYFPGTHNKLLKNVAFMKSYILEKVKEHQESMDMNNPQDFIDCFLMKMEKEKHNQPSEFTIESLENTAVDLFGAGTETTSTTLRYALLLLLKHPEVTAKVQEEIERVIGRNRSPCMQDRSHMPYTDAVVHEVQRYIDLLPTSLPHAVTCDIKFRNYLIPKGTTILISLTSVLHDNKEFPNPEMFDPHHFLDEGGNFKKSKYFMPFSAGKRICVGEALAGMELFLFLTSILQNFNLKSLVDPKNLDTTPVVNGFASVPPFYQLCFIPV
Sequence of Wee1-like protein kinase (P30291 whole entry): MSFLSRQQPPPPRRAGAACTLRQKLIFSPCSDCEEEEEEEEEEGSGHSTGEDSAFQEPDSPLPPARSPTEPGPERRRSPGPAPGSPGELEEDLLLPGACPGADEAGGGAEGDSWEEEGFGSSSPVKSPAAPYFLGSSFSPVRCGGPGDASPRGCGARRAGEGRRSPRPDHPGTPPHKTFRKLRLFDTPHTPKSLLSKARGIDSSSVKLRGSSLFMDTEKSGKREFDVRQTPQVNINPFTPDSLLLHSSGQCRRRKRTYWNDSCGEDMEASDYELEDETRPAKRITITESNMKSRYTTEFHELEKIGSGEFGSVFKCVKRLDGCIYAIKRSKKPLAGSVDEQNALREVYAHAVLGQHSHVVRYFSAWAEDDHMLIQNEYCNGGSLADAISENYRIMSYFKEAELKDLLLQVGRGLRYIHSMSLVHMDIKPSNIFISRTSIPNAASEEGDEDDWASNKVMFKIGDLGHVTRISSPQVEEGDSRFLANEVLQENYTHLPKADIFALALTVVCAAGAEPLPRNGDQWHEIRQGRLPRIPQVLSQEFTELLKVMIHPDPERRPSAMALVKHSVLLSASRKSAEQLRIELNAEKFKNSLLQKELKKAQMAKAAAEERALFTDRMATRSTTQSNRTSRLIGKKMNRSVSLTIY

AC50 (Cytochrome P450 2C9): 5.01 µM (inconclusive)
Structure (SMILES): CC(C)(C)c1ccc(OC2C(O)COC2/C=C/C#Cc2ccccc2)cc1 (centres undefined)

Structure (SMILES): CC1CCN(c2c(NCc3ccc(C(=O)N4c5ccccc5CC4C)cc3)c(=O)c2=O)CC1 (centres undefined)
IC50 (Insulin-degrading enzyme): 2.98 µM (active)
IC50 [1]: 17.6 µM (not active)
IC50 (Protein Wnt-3a): 16.4 µM (active)
IC50 [2]: > 80 µM (inactive)

EC50 (Wee1-like protein kinase): > 49.7 µM (not active)
EC50 [3]: > 49.7 µM (not active)
Structure (SMILES): Cc1cc(Cl)ccc1N=C(S)Nc1ccccn1

Structure (SMILES): CSc1nc(O)c(C#N)c(-c2ccccc2)n1
IC50 [4]: > 39.8 µM (not active)
IC50 [5]: 5.34 µM (active)
